How the values were obtained:
barnyardgrass [1] = assay: Test B pre-/postemergence herbicide test; format: in vivo, Echinochloa crus-galli
Method in brief: (§1)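 Plants compared with untreated controls 13–15 days post-treatment and given a visual 0–100 injury score. Applications: preemergence to seeds; postemergence at 1- to 4-leaf (2–18 cm); paddy species flooded, 2-leaf stage. Vehicle non-phytotoxic, surfactant included.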

Surinam grass = assay: Test B pre-/postemergence herbicide test; format: in vivo, Urochloa decumbens; conditions: for Surinam Grass plant response rating: postemergence, visual rating
Method in brief: as §1

cocklebur = assay: Test B pre-/postemergence herbicide test; format: in vivo, Xanthium strumarium
Method in brief: as §1

corn = assay: Test B pre-/postemergence herbicide test; format: in vivo, Zea mays
Method in brief: as §1

large crabgrass = assay: Test B pre-/postemergence herbicide test; format: in vivo, Digitaria sanguinalis
Method in brief: as §1

giant foxtail = assay: Test B pre-/postemergence herbicide test; format: in vivo, Setaria faberi
Method in brief: as §1

lambsquarters = assay: Test B pre-/postemergence herbicide test; format: in vivo, Chenopodium album; conditions: for Lambsquarters plant response rating: postemergence, visual rating
Method in brief: as §1

morningglory = assay: Test B pre-/postemergence herbicide test; format: in vivo, Ipomoea coccinea; conditions: for Morningglory plant response rating: postemergence, visual rating
Method in brief: as §1

pigweed = assay: Test B pre-/postemergence herbicide test; format: in vivo, Amaranthus retroflexus; conditions: for Pigweed plant response rating: postemergence, visual rating
Method in brief: as §1

rice [2] = assay: Test B pre-/postemergence herbicide test; format: in vivo, Oryza sativa; conditions: preemergence, 125 g ai/ha; 0 to 100 scale, 0 is no effect, 100 is complete control
Source text: Seeds selected from barnyardgrass (Echinochloa crus-galli (L.) Beauv.), Surinam grass (Urochloa decumbens (Staph) R. D. Webster, previously named Brachiaria decumbens Stapf), cocklebur (Xanthium strumarium L.), corn (Zea mays L.), large crabgrass (Digitaria sanguinalis (L.) Scop.), giant foxtail (Setaria faberi Herim.), lambsquarters (Chenopodium album L.), morningglory (Ipomoea coccinea L.), pigweed (Amaranthus retroflexus L.), rice (Oryza sativa L.) and velvetleaf (Abutilon theophrasti Medik.) were planted and treated preemergence with test chemicals formulated in a non-phytotoxic solvent mixture which included a surfactant.
At the same time, plants selected from these crop and weed species and also blackgrass (Alopecurus myosuroides Huds.), wheat (Triticum aestivum L.) and wild oat (Avena fatua L.) were treated with postemergence applications of test chemicals formulated in the same manner. Plants ranged in height from 2 to 18 cm (1- to 4-leaf stage) for postemergence treatments. Plant species in the flooded paddy test consisted of rice (Oryza sativa L.), small flower umbrella sedge (Cyperus difformis L.), ducksalad (Heteranthera limosa (Sw.) Willd.) and barnyardgrass (Echinochloa crus-galli (L.) Beauv.) grown to the 2-leaf stage for testing. Treated plants and controls were maintained in a greenhouse for 13 to 15 days, after which time all species were compared to controls and visually evaluated. Plant response ratings, summarized in Table B, are based on a scale of 0 to 100 where 0 is no effect and 100 is complete control. A dash (-) response means no test result.

velvetleaf = assay: Test B pre-/postemergence herbicide test; format: in vivo, Abutilon theophrasti; conditions: for Velvetleaf plant response rating: postemergence, visual rating
Method in brief: as §1

blackgrass = assay: Test B postemergence herbicide test; format: in vivo, Alopecurus myosuroides; conditions: scale 0 (no effect) to 100 (complete control); for Plant response rating, Blackgrass: Postemergence, 500 g ai/ha, visual rating after 13 to 15 days; for Blackgrass plant response rating: postemergence, 125 g ai/ha, visual rating
Method in brief: (§2)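 Formulated test chemicals went onto postemergence plants measuring 2 to 18 cm, at one to four leaves. For the paddy assay, species had reached two leaves. Scoring took place 13–15 days later by eye, relative to untreated plants, using 0 for no effect up to 100 for full control.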

wheat = assay: Test B postemergence herbicide test; format: in vivo, Triticum aestivum; parameters: key to Wheat plant response rating: 0 = no effect, 100 = complete control; conditions: scale 0 (no effect) to 100 (complete control); for Plant response rating, Wheat: Postemergence, 500 g ai/ha, visual rating after 13 to 15 days; for Wheat plant response rating: postemergence, 125 g ai/ha, visual rating
Method in brief: (§3)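 Visual ratings, 0 (no effect) to 100 (complete control), made versus controls after 13–15 d greenhouse. Paddy plants treated at 2-leaf stage; postemergence plants at 1- to 4-leaf stage, 2–18 cm tall.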

wild oat = assay: Test B postemergence herbicide test; format: in vivo, Avena fatua; conditions: scale 0 (no effect) to 100 (complete control); for Plant response rating, Oat, Wild: Postemergence, 500 g ai/ha, visual rating after 13 to 15 days; for Oat, Wild plant response rating: postemergence, 125 g ai/ha, visual rating
Method in brief: as §3

rice [3] = assay: Test B flooded paddy test; format: in vivo, Oryza sativa; conditions: 1000 g ai/ha, visual rating, scale 0 to 100 (0 no effect, 100 complete control), 13 to 15 days
Method in brief: as §2

[4] = tested on: small flower umbrella sedge; assay: Test B flooded paddy test; format: in vivo, Cyperus difformis; conditions: 1000 g ai/ha, visual rating, scale 0 to 100 (0 no effect, 100 complete control), 13 to 15 days
Method in brief: as §2

ducksalad = assay: Test B flooded paddy test; format: in vivo, Heteranthera limosa; conditions: 1000 g ai/ha, visual rating, scale 0 to 100 (0 no effect, 100 complete control), 13 to 15 days
Method in brief: as §2

barnyardgrass [5] = assay: Test B flooded paddy test; format: in vivo, Echinochloa crus-galli; conditions: 1000 g ai/ha, visual rating, scale 0 to 100 (0 no effect, 100 complete control), 13 to 15 days
Method in brief: as §2

[6] = Postemergence, 500 g ai/ha, visual rating after 13 to 15 days, scale 0 (no effect) to 100 (complete control)
[7] = Preemergence, 500 g ai/ha, scale 0 to 100
[8] = postemergence, 125 g ai/ha, visual rating, scale 0 (no effect) to 100 (complete control)
[9] = preemergence, 125 g ai/ha, 0 to 100 scale, 0 is no effect, 100 is complete control
[10] = 125 g ai/ha, scale 0 (no effect) to 100 (complete control)

For `CCN(CC)C(=O)c1cc(NC(=O)c2cc(C(C)(C)C)nn2CC)ccc1C` [Compound 69], the “Plant response rating, Barnyardgrass” value (barnyardgrass [1]; [6]) was 0, the “Barnyardgrass plant response rating” value (barnyardgrass [1]; [7]) was 0 and the “Barnyardgrass plant response rating” value (barnyardgrass [1]; [8]) was 0. For the same molecule, the “Plant response rating, Barnyardgrass” value (barnyardgrass [1]; [9]) was 0, the “Plant response rating, Surinam Grass” value (Surinam grass; [6]) was 0 and the “Surinam Grass plant response rating” value (Surinam grass; [10]) was 0. The “Plant response rating, Surinam Grass” value (Surinam grass; [9]) was 0, the “Plant response rating, Cocklebur” value (cocklebur; [6]) was 0 and the “Cocklebur plant response rating” value (cocklebur; [8]) was 0. For the same molecule, the “Plant response rating, Cocklebur” value (cocklebur; [9]) was 0, the “Plant response rating, Corn” value (corn; [6]) was 0 and the “Corn plant response rating” value (corn; [7]) was 0. The “Corn plant response rating” value (corn; [8]) was 0, the “Plant response rating, Corn” value (corn; [9]) was 0 and the “Plant response rating, Crabgrass, Large” value (large crabgrass; [6]) was 0. The “Crabgrass, Large plant response rating” value (large crabgrass; [7]) was 0, the “Crabgrass, Large plant response rating” value (large crabgrass; [8]) was 0 and the “Plant response rating, Crabgrass, Large” value (large crabgrass; [9]) was 0. For the same molecule, the “Plant response rating, Foxtail, Giant” value (giant foxtail; [6]) was 0, the “Foxtail, Giant plant response rating” value (giant foxtail; [7]) was 0 and the “Foxtail, Giant plant response rating” value (giant foxtail; [8]) was 0. The “Plant response rating, Foxtail, Giant” value (giant foxtail; [9]) was 0, the “Plant response rating, Lambsquarters” value (lambsquarters; [6]) was 10 and the “Lambsquarters plant response rating” value (lambsquarters; [10]) was 0. For the same molecule, the “Plant response rating, Lambsquarters” value (lambsquarters; [9]) was 0, the “Plant response rating, Morningglory” value (morningglory; [6]) was 0 and the “Morningglory plant response rating” value (morningglory; [10]) was 0. For the same molecule, the “Plant response rating, Morningglory” value (morningglory; [9]) was 0, the “Plant response rating, Pigweed” value (pigweed; [6]) was 20 and the “Pigweed plant response rating” value (pigweed; [10]) was 10. For the same molecule, the “Plant response rating, Pigweed” value (pigweed; [9]) was 0, the “Plant response rating, Rice” value (rice [2]) was 0 and the “Plant response rating, Velvetleaf” value (velvetleaf; [6]) was 0. For the same molecule, the “Velvetleaf plant response rating” value (velvetleaf; [10]) was 0, the “Plant response rating, Velvetleaf” value (velvetleaf; [9]) was 0 and the “Plant response rating, Blackgrass” value (blackgrass) was 30. For the same molecule, the “Blackgrass plant response rating” value (blackgrass) was 10, the “Plant response rating, Wheat” value (wheat) was 0 and the “Wheat plant response rating” value (wheat) was 0. For the same molecule, the “Plant response rating, Oat, Wild” value (wild oat) was 20, the “Oat, Wild plant response rating” value (wild oat) was 10 and the “Rice plant response rating” value (rice [3]) was 0. The “Sedge, Umbrella plant response rating” value [4] was 0, the “Ducksalad plant response rating” value (ducksalad) was 0 and the “Barnyardgrass plant response rating” value (barnyardgrass [5]) was 0.

`CCn1nc(C(C)(C)C)cc1C(=O)Nc1cc(C(=O)OC(C)C)c(OC)cc1F` [Compound 77] was tested, and the “Plant response rating, Barnyardgrass” value (barnyardgrass [1]; [6]) was 0, the “Barnyardgrass plant response rating” value (barnyardgrass [1]; [7]) was 70 and the “Barnyardgrass plant response rating” value (barnyardgrass [1]; [8]) was 0. The “Plant response rating, Barnyardgrass” value (barnyardgrass [1]; [9]) was 0, the “Plant response rating, Surinam Grass” value (Surinam grass; [6]) was 20 and the “Surinam Grass plant response rating” value (Surinam grass; [10]) was 0. For the same molecule, the “Plant response rating, Surinam Grass” value (Surinam grass; [9]) was 0, the “Plant response rating, Cocklebur” value (cocklebur; [6]) was 0 and the “Cocklebur plant response rating” value (cocklebur; [7]) was 0. The “Cocklebur plant response rating” value (cocklebur; [8]) was 0, the “Plant response rating, Cocklebur” value (cocklebur; [9]) was 0 and the “Plant response rating, Corn” value (corn; [6]) was 10. The “Corn plant response rating” value (corn; [7]) was 40, the “Corn plant response rating” value (corn; [8]) was 10 and the “Plant response rating, Corn” value (corn; [9]) was 0. For the same molecule, the “Plant response rating, Crabgrass, Large” value (large crabgrass; [6]) was 40, the “Crabgrass, Large plant response rating” value (large crabgrass; [7]) was 80 and the “Crabgrass, Large plant response rating” value (large crabgrass; [8]) was 0. For the same molecule, the “Plant response rating, Crabgrass, Large” value (large crabgrass; [9]) was 0, the “Plant response rating, Foxtail, Giant” value (giant foxtail; [6]) was 40 and the “Foxtail, Giant plant response rating” value (giant foxtail; [7]) was 60. The “Foxtail, Giant plant response rating” value (giant foxtail; [8]) was 0, the “Plant response rating, Foxtail, Giant” value (giant foxtail; [9]) was 0 and the “Plant response rating, Lambsquarters” value (lambsquarters; [6]) was 90. The “Lambsquarters plant response rating” value (lambsquarters; [10]) was 50, the “Plant response rating, Lambsquarters” value (lambsquarters; [9]) was 60 and the “Plant response rating, Morningglory” value (morningglory; [6]) was 70. For the same molecule, the “Morningglory plant response rating” value (morningglory; [10]) was 0, the “Plant response rating, Morningglory” value (morningglory; [9]) was 0 and the “Plant response rating, Pigweed” value (pigweed; [6]) was 90. For the same molecule, the “Pigweed plant response rating” value (pigweed; [10]) was 70, the “Plant response rating, Pigweed” value (pigweed; [9]) was 90 and the “Plant response rating, Rice” value (rice [2]) was 0. The “Plant response rating, Velvetleaf” value (velvetleaf; [6]) was 30, the “Velvetleaf plant response rating” value (velvetleaf; [10]) was 20 and the “Plant response rating, Velvetleaf” value (velvetleaf; [9]) was 0. The “Plant response rating, Blackgrass” value (blackgrass) was 30, the “Blackgrass plant response rating” value (blackgrass) was 20 and the “Plant response rating, Wheat” value (wheat) was 20. The “Wheat plant response rating” value (wheat) was 10, the “Plant response rating, Oat, Wild” value (wild oat) was 40 and the “Oat, Wild plant response rating” value (wild oat) was 40. The “Rice plant response rating” value (rice [3]) was 70, the “Sedge, Umbrella plant response rating” value [4] was 80 and the “Ducksalad plant response rating” value (ducksalad) was 40. The “Barnyardgrass plant response rating” value (barnyardgrass [5]) was 40.

Reference: patent US20060069132A1, “Azolecarboxamide herbicides” (priority 2004, published 2006)
